Measurements from patent US20230357354A1, “CD38-BINDING CD31 PEPTIDES AND USES THEREOF” (ENCEFA, priority 2020, published 2023).

biological target: recombinant His-tagged CD38 (Homo sapiens, UniProt P28907); test: Pepscan-based ELISA of His-tagged CD38 on CD31 peptide arrays; type: binding; settings: mimic type BET (β-turn mimic, mP2 CLIPS); sample with the highest signal
Source text: Different sets of sCD31 peptides were synthesized according to the following designs. Note that actual order of peptides on mini-cards in some was randomized. • Set #1 • Mimic type: linear • Label: LIN15 • Linear peptides of 15 consecutive amino acid residues in length, derived from the target sequence of sCD31 with an offset of […]. • Set #2 • Mimic type: single loop (mP2 CLIPS) • Label: LOOP7 • Constrained peptides of 9 amino acid residues in length. On positions 2-8 are incorporated 7 consecutive amino acid residues derived from the target sequence of sCD31 with an offset of 1.3 residues. Cys residues were inserted on positions 1 and 9 and joined by mP2 CLIPS in order to create a loop mimic. Native Cys residues, if present, were replaced by Ser residues. • Set #3 • Mimic type: single loop, (mP2 CLIPS) • Label: LOOP15 • Constrained peptides of 17 amino acid residues in length. On positions 2-16 are incorporated 15 consecutive amino acid residues derived from the target sequence of sCD31 with an offset of […]. Cys residues were inserted on positions 1 and 17 and joined by mP2 CLIPS in order to create a loop mimic. Native Cys residues, if present, were replaced by Ser residues. • Set #4 • Mimic type: β-turn peptide mimics (mP2 CLIPS) • Label: BET • β-turn peptide mimics of 22 amino acid residues in length. On positions 2-21 are incorporated 20 consecutive amino acid residues derived from the target sequence of sCD31 with an offset of 1.3 residues. Residues on positions 11 and 12 are replaced by a Pro-Gly motif in order to induce the β-turn formation. Cys residues were inserted on positions 1 and 22 and joined by mP2 CLIPS in order to stabilize the mimic. Native Cys residues, if present, were replaced by Ser residues.
To reconstruct epitopes of sCD31, a library of peptide-based peptide mimics was synthesized using Fmoc-based solid-phase peptide synthesis. An amino functionalized polypropylene support was obtained by grafting with a hydrophilic polymer formulation, followed by reaction with t-butyloxycarbonyl-hexamethylenediamine (BocHMDA) using dicyclohexylcarbodiimide (DCC) with N-hydroxybenzotriazole (HOBt) and subsequent cleavage of the Boc-groups using trifluoroacetic acid (TFA).
Standard Fmoc-peptide synthesis was used to synthesize peptides on the amino-functionalized solid support by custom modified JANUS liquid handling stations (Perkin Elmer).
Synthesis of structural mimics was done using CLIPS technology. CLIPS technology allows to structure peptides into single loops, double loops, triple loops, sheet-like folds, helix-like folds, and combinations thereof. CLIPS templates are coupled to cysteine residues. The side-chains of multiple cysteines in the peptides are coupled to one or two CLIPS templates. For example, a 0.5 mM solution of the P2 CLIPS (2,6-bis(bromomethyl)pyridine) is dissolved in ammonium bicarbonate (20 mM, pH 7.8)/acetonitrile (1:3, v/v). This solution is added onto the peptide arrays. The CLIPS template binds to side-chains of two cysteines as present in the solid-phase bound peptides of the peptide-arrays (455 wells plate with 3-µL wells). The peptide arrays are gently shaken in the solution for 30 to 60 minutes while completely covered in solution.
Finally, the peptide arrays are washed extensively with excess of H2O and sonicated in disrupt-buffer containing 1% SDS / 0.1 % 2,2′-(ethylenedioxy)diethanethiol in PBS (pH 7.2) at 70° C. for 30 minutes, followed by sonication in H2O for another 45 minutes.
The binding of the sample (recombinant His-tagged CD38; 9 µg/mL and 20 µg/mL) to each of the synthesized peptides was tested in a pepscan-based ELISA. The peptide arrays were incubated with primary sample solution (overnight at 4° C.). […]

| Substance | Value (binding intensity of His-tagged CD38), BET conformational peptide array [mAU] |
| --- | --- |
| 10 (CMVKLKREKNPGDQNFVILEFC; Human sCD31 peptide) [compound 10] | 1497 |
| 280 (CQIVVSEMLSPGRISYDAQFEC) [compound 280] | 417 |
| 266 (CTSHVKPQHQPGFYKDDVLFYC) [compound 266] | 725 |
| 272 (CDDVLFYNISPGKSTESYFIPC) [compound 272] | 524 |
| 13 (CVESSRISKVPGIVVNITELFC; Human sCD31 peptide) [compound 13] | 943 |

same assay, conditions: mimic type LIN15; sample with the highest signal (His-tagged CD38 9 or 20 µg/mL)

| Substance | Value (binding intensity of His-tagged CD38), LIN15 linear peptide array [mAU] |
| --- | --- |
| 102 (ISKVSSIVVNITELF) [compound 102] | 642 |
| 172 (EQEGEYYCTAFNRAN) [compound 172] | 340 |
| 169 (QKASKEQEGEYYCTA) [compound 169] | 316 |
| 30 (KPQHQMLFYKDDVLF) [compound 30] | 355 |

same assay, conditions: mimic type LOOP7 (single loop, mP2 CLIPS); sample with the highest signal

| Substance | Value (binding intensity of His-tagged CD38), LOOP7 conformational peptide array [mAU] |
| --- | --- |
| 224 (CEGEYYSTC) [compound 224] | 650 |
| 189 (CEVRIYDSC) [compound 189] | 642 |
| 223 (CQEGEYYSC) [compound 223] | 619 |
| 201 (CQEFPEIIC) [compound 201] | 476 |

same assay, conditions: mimic type LOOP15 (single loop, mP2 CLIPS); sample with the highest signal

| Substance | Value (binding intensity of His-tagged CD38), LOOP15 conformational peptide array [mAU] |
| --- | --- |
| 261 (CRISKVSSIVVNITELC) [compound 261] | 567 |
| 234 (CLFYKDDVLFYNISSMC) [compound 234] | 497 |
| 246 (CYFIPEVRIYDSGTYKC) [compound 246] | 416 |
| 253 (CNFVILEFPVEEQDRVC) [compound 253] | 524 |
| 9 (CRDQNFVILEFPVEEQC; Human sCD31 peptide) [compound 9] | 1110 |

test system: human Daudi cells; test: not given; type: cell-based; settings: glucose-deprived cells, 1 hour treatment (1 µM per figure legends; 10 µg/mL per method), 2-NBDG 500 µM 30 minutes
Procedure: Human Daudi cells cultured in 75 cm^2 flask were centrifuged ( 300 g, 3 minutes), resuspended in warmed PBS supplemented with 10 % goat serum and seeded in 96-well microplate ( 100 µL, 2 × 10^6 cells/mL) in order to deprive cells from glucose. Cells were treated with test treatments (10 µg/mL) for 1 hour (37° C.). Cells were then incubated with 500 µM of the fluorescent and non-metabolizable glucose analog 2-NBDG ((2R,3R,4S,5R)-3,4,5,6-tetrahydroxy-2-[(7-nitro-2,1,3-benzoxadiazol-4-yl)amino]hexanal; Thermo Fischer) for 30 minutes at 37° C., and washed 4 times with PBS containing 10 % of goat serum. Images were acquired using a Zeiss microscope (20 X) and the relative fluorescence intensity of 30 cells was determined using Fiji.
To determine the effect of test compounds on glucose uptake, we developed a cellular model based on the use of human Daudi cells, a cell line known to strongly express CD38.
Human Daudi cells were plated in culture medium deprived of glucose and exposed to test treatments (peptides of Table 6) for 1 hour and then incubated with the non-metabolizable, fluorescent glucose 2-NBDG. After 30 minutes of incubation, cells were washed and imaged using a microscope. Fluorescence levels were determined using Fiji.

| Substance | glucose uptake (2-NBDG fluorescence) |
| --- | --- |
| NYVILEFP [SEQ ID NO: 305] | still increase glucose uptake |
| HFVILEFP [SEQ ID NO: 304] | impact the glucose uptake-increasing activity of the peptide |
| FELIVFN (Scramble peptide) [SEQ ID NO: 285, scramble peptide containing the same amino acid residues as NFVILEF in a different order] | not able to increase glucose uptake |
| NSMLIEFT [SEQ ID NO: 320] | still able to increase glucose uptake |
| NFVQLEFP [SEQ ID NO: 313] | still active |
| NFVIHEFP [SEQ ID NO: 318] | impact the glucose uptake-increasing activity of the peptide |
| NFVHLEFP [SEQ ID NO: 314] | impact the glucose uptake-increasing activity of the peptide |
| NFVIDEFP [SEQ ID NO: 319] | impact the glucose uptake-increasing activity of the peptide |
| TFVILEFP [SEQ ID NO: 303] | still increase glucose uptake, although to a lesser extent |
| FVILEFP [SEQ ID NO: 292] | failed to reproduce the effect of sCD31 |
| NFVDLEFP [SEQ ID NO: 315] | impact the glucose uptake-increasing activity of the peptide |
| NFVITEFP [SEQ ID NO: 316] | impact the glucose uptake-increasing activity of the peptide |
| NFVALEFP [SEQ ID NO: 296] | slightly decreased the activity of the peptide, although it remained overall active |
| SFVILEFP [SEQ ID NO: 302] | still increase glucose uptake, although to a lesser extent |
| NFVIAEFP [SEQ ID NO: 297] | slightly decreased the activity of the peptide, although it remained overall active |
| NFVFLEFP [SEQ ID NO: 311] | still active |
| QFVILEFP [SEQ ID NO: 301] | still increase glucose uptake |
| NHVILEFP [SEQ ID NO: 309] | impact the glucose uptake-increasing activity of the peptide |
| NFVTLEFP [SEQ ID NO: 312] | still active |
| NFVIFEFP [SEQ ID NO: 317] | increased glucose uptake, even more efficiently than SEQ ID NO: 297 |
| NSVILEFP [SEQ ID NO: 308] | keep glucose uptake-increasing activity |
| NWVILEFP [SEQ ID NO: 306] | still increase glucose uptake |
| NDVILEFP [SEQ ID NO: 310] | impact the glucose uptake-increasing activity of the peptide |

same assay, conditions: parent SEQ ID NO: 6 (deletions) or SEQ ID NO: 8 (alanine scanning); 2-NBDG fluorescence

| Substance | effect of the C-terminal deletion or alanine substitution (relative to the parent peptide) on glucose uptake |
| --- | --- |
| NFVILAFP [SEQ ID NO: 298] | had no effect on glucose uptake |
| NFVILEAP [SEQ ID NO: 299] | had no effect on glucose uptake |
| NFVILEFA [SEQ ID NO: 300] | had no effect on glucose uptake |
| NFAILEFP [SEQ ID NO: 295] | had no effect on glucose uptake |
